According to patent publication US9040528B2, “Chemical compounds 542” (AstraZeneca AB, priority 2008, dated 2015):

Target: Escherichia coli DNA gyrase A/B tetramer (Escherichia coli (strain K12), UniProt P0AES4+P0AES6)
Experiment: DNA gyrase supercoiling activity fluorescence polarisation assay
Format: biochemical
Settings: 5 nM enzyme, relaxed plasmid, 0.3 mM ATP, ambient temperature; read-out: E. coli DNA gyrase supercoiling IC50
Method: DNA Gyrase Supercoiling Activity Fluorescence Polarisation Assay
The supercoiling reactions may be quenched by the addition of 10 microliters/well of 40 nM oligodeoxynucleotide probe in 3× triplex-forming buffer consisting of 150 mM NaCl, and 150 mM sodium acetate at pH 3.5. The oligodeoxynucleotide probe may be 5′-BODIPY-FL-labeled […]. After 60 minutes, the fluorescence anisotropy of the BODIPY-FL may be measured in a Tecan Ultra plate reader, using 485 nm excitation and 535 nm emission filters equipped with polarizers. The IC50 may be determined by nonlinear regression using two control reactions. The first contains no test compound but 0.8% DMSO (100% activity) while the second control reaction contains 5 μM Ciprofloxacin and 0.8% DMSO (0% activity).

SMILES	IC50
C[C@@H]1CN2c3c(cc4c(-c5cncs5)noc4c3F)CC3(C(=O)NC(=O)NC3=O)[C@H]2[C@H](C)O1 (relative stereo) [Example 98, (2R,4S,4aS)-rel-11-fluoro-2,4-dimethyl-8-(thiazol-5-yl)-2,4,4a,6-tetrahydro-1H,1′H-spiro[isoxazolo[4,5-g][1,4]oxazino[4,3-a]quinoline-5,5′-pyrimidine]-2′,4′,6′(3′H)-trione]	400 nM
CSc1nccc(-c2noc3c(F)c4c(cc23)CC2(C(=O)NC(=O)NC2=O)[C@H]2[C@H](C)O[C@H](C)CN42)n1 [Example 168, (2R,4S,4aS)-11-fluoro-2,4-dimethyl-8-(2-(methylthio)pyrimidin-4-yl)-2,4,4a,6-tetrahydro-1H,1′H-spiro[isoxazolo[4,5-g][1,4]oxazino[4,3-a]quinoline-5,5′-pyrimidine]-2′,4′,6′(3′H)-trione]	600 nM
C[C@@H]1CN2c3c(cc4c(-c5ccncc5)noc4c3Cl)CC3(C(=O)NC(=O)NC3=O)[C@H]2[C@H](C)O1 (relative stereo) [Example 46, (2R,4S,4aS)-rel-11-chloro-2,4-dimethyl-8-(pyridin-4-yl)-1,2,4,4a-tetrahydro-2′H,6H-spiro[1,4-oxazino[4,3-a][1,2]oxazolo[4,5-g]quinoline-5,5′-pyrimidine]-2′,4′,6′(1′H,3′H)-trione]	1000 nM
Cc1noc2c(F)c3c(cc12)CC1(C(=O)NC(=O)NC1=O)[C@H]1[C@H](C)O[C@H](C)CN31 [Example 2(b), (2R,4S,4aS)-11-fluoro-2,4,8-trimethyl-2,4,4a,6-tetrahydro-1H,1′H-spiro[isoxazolo[4,5-g][1,4]oxazino[4,3-a]quinoline-5,5′-pyrimidine]-2′,4′,6′(3′H)-trione]	300 nM
COCCNC(=O)c1noc2c(F)c3c(cc12)CC1(C(=O)NC(=O)NC1=O)[C@H]1[C@H](C)O[C@H](C)CN31 (relative stereo) [Example 143, (2R,4S,4aS)-rel-11-fluoro-N-(2-methoxyethyl)-2,4-dimethyl-2′,4′,6′-trioxo-2,2′,3′,4,4a,4′,6,6′-octahydro-1H,1′H-spiro[isoxazolo[4,5-g][1,4]oxazino[4,3-a]quinoline-5,5′-pyrimidine]-8-carboxamide]	1000 nM
C[C@@H]1CN2c3c(cc4c(-c5cn[nH]c5)noc4c3F)CC3(C(=O)NC(=O)NC3=O)[C@H]2[C@H](C)O1 (relative stereo) [Example 64, (2R,4S,4aS)-rel-11-fluoro-2,4-dimethyl-8-(1H-pyrazol-4-yl)-1,2,4,4a-tetrahydro-2′H,6H-spiro[1,4-oxazino[4,3-a][1,2]oxazolo[4,5-g]quinoline-5,5′-pyrimidine]-2′,4′,6′(1′H,3′H)-trione]	800 nM
C[C@@H]1CN2c3c(cc4c(C(N)=S)noc4c3F)CC3(C(=O)NC(=O)NC3=O)[C@H]2[C@H](C)O1 (relative stereo) [Intermediate 575, (2R,4S,4aS)-rel-11-fluoro-2,4-dimethyl-2′,4′,6′-trioxo-1,1′,2,3′,4,4′,4a,6′-octahydro-2′H,6H-spiro[1,4-oxazino[4,3-a][1,2]oxazolo[4,5-g]quinoline-5,5′-pyrimidine]-8-carbothioamide]	1000 nM
C[C@@H]1CN2c3c(cc4c(-n5cnc(C#N)n5)noc4c3F)CC3(C(=O)NC(=O)NC3=O)[C@H]2[C@H](C)O1 (relative stereo) [Example 55, 1-[(2R,4S,4aS)-rel-11-fluoro-2,4-dimethyl-2′,4′,6′-trioxo-1,1′,2,3′,4,4′,4a,6′-octahydro-2′H,6H-spiro[1,4-oxazino[4,3-a][1,2]oxazolo[4,5-g]quinoline-5,5′-pyrimidin]-8-yl]-1H-1,2,4-triazole-3-carbonitrile]	2600 nM
C[C@@H]1CN2c3c(cc4c(C(=O)NC5CC5)noc4c3F)CC3(C(=O)NC(=O)NC3=O)[C@H]2[C@H](C)O1 (relative stereo) [Example 150, (2R,4S,4aS)-rel-N-cyclopropyl-11-fluoro-2,4-dimethyl-2′,4′,6′-trioxo-2,2′,3′,4,4a,4′,6,6′-octahydro-1H,1′H-spiro[isoxazolo[4,5-g][1,4]oxazino[4,3-a]quinoline-5,5′-pyrimidine]-8-carboxamide]	1300 nM
